Entries after “also recorded” stand apart in the source; their conditions may differ.
Key:
IR = target: T1, IR (Homo sapiens, UniProt P06213); assay: Kinase panel screen; assay type: biochemical; conditions: Compound I and ATP 10 μM
T1 construct: purchased Upstate USA or Invitrogen (commercial screening service)

Akt1 = target: T2, Akt1 (Homo sapiens, UniProt P31749); assay: Kinase panel screen; assay type: biochemical; conditions: Compound I at 1 μM and ATP at the apparent Km
T2 construct: purchased Upstate USA or Invitrogen (commercial screening service)

Akt3 = target: T3, Akt3 (Homo sapiens, UniProt Q9Y243); assay: Kinase panel screen; assay type: biochemical; conditions: Compound I at 1 μM and ATP at the apparent Km
T3 construct: purchased Upstate USA or Invitrogen (commercial screening service)

DDR2 = target: T4, DDR2 (Homo sapiens, UniProt Q16832); assay: Kinase panel screen; assay type: biochemical; conditions: Compound I and ATP 10 μM
T4 construct: purchased Upstate USA or Invitrogen (commercial screening service)

FGFR2 = target: T5, FGFR2 (Homo sapiens, UniProt P21802); assay: Kinase panel screen; assay type: biochemical; conditions: Compound I and ATP 10 μM
T5 construct: purchased Upstate USA or Invitrogen (contract screening service)
T5 sequence (P21802 22-821): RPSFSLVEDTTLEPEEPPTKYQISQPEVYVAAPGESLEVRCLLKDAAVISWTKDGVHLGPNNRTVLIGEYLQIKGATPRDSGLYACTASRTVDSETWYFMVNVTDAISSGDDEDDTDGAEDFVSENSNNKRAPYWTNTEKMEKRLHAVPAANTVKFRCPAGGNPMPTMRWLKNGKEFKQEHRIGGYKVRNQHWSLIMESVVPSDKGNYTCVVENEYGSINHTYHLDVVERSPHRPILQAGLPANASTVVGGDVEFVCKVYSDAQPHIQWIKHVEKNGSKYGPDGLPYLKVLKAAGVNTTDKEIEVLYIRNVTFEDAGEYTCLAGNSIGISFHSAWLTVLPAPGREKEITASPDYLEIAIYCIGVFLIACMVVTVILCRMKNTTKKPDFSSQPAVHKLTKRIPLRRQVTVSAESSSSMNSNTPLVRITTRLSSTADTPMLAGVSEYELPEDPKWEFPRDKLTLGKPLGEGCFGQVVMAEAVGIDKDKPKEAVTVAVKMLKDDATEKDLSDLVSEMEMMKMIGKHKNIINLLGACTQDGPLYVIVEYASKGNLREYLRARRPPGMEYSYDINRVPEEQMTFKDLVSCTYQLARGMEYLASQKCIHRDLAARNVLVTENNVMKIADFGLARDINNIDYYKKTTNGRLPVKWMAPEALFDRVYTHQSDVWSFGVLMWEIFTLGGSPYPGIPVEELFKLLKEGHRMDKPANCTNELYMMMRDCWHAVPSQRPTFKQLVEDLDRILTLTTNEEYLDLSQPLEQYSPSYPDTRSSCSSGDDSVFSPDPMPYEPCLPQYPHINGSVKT

SGK = target: T6, SGK (Homo sapiens, UniProt O00141, S422D); assay: Kinase panel screen; assay type: biochemical; conditions: Compound I and ATP 10 μM
T6 construct: purchased Upstate USA or Invitrogen (commercial screening service)

Ret = target: T7, Ret (Homo sapiens, UniProt P07949); assay: Kinase panel screen; assay type: biochemical; conditions: Compound I and ATP 10 μM
T7 construct: purchased Upstate USA or Invitrogen (contract screening service)
T7 sequence (P07949 29-1114): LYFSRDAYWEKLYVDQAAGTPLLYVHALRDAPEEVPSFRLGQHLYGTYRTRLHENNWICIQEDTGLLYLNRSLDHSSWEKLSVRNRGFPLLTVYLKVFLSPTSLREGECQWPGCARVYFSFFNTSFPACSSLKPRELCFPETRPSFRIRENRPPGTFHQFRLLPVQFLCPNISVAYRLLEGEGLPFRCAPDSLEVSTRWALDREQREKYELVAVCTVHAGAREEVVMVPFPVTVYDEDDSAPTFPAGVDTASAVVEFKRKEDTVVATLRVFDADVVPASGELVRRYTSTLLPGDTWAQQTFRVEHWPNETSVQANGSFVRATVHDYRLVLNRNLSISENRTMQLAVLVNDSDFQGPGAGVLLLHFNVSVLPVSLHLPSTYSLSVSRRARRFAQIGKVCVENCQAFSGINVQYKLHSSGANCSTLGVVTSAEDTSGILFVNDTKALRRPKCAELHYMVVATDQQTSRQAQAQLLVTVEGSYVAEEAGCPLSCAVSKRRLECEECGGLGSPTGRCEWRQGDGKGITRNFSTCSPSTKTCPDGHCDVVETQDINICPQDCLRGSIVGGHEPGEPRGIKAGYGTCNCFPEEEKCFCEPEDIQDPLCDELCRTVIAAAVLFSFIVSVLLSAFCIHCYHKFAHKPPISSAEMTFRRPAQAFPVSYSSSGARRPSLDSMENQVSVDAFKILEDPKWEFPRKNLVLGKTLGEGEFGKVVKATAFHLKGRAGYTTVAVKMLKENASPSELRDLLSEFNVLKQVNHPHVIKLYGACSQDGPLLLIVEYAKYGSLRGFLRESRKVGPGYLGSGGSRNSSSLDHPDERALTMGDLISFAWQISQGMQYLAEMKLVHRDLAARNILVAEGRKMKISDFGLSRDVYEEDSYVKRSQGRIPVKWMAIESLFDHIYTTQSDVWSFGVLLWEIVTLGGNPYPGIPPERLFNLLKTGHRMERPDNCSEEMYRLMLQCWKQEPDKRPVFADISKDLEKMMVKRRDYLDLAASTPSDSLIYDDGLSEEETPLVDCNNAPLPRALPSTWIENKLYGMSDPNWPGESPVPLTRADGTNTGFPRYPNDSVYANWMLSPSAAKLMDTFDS

Met = target: T8, Met (Homo sapiens, UniProt P08581); assay: Kinase panel screen; assay type: biochemical; conditions: Compound I and ATP 10 μM
T8 construct: purchased Upstate USA or Invitrogen (contract screening service)

Blk = target: T9, Blk (Mus musculus, UniProt P16277); assay: Kinase panel screen; assay type: biochemical; conditions: Compound I and ATP 10 μM
T9 construct: purchased Upstate USA or Invitrogen (commercial screening service)

Flt1 = target: T10, Flt1 (Homo sapiens, UniProt P17948); assay: Kinase panel screen; assay type: biochemical; conditions: Compound I and ATP 10 μM
T10 construct: purchased Upstate USA or Invitrogen (commercial screening service)

FGFR1 = target: T11, FGFR1 (Homo sapiens, UniProt P11362); assay: Kinase panel screen; assay type: biochemical; conditions: Compound I and ATP 10 μM
T11 construct: purchased Upstate USA or Invitrogen (contract screening service)

ROCK-II = target: T12, ROCK-II (Homo sapiens, UniProt O75116); assay: Kinase panel screen; assay type: biochemical; conditions: Compound I and ATP 10 μM
T12 construct: purchased Upstate USA or Invitrogen (commercial screening service)

MAPKAP-K2 = target: T13, MAPKAP-K2 (Homo sapiens, UniProt P49137); assay: Kinase panel screen; assay type: biochemical; conditions: Compound I and ATP 10 μM
T13 construct: purchased Upstate USA or Invitrogen (commercial screening service)

SAPK2b = target: T14, SAPK2b (Homo sapiens, UniProt Q15759); assay: Kinase panel screen; assay type: biochemical; conditions: Compound I and ATP 10 μM
T14 construct: purchased Upstate USA or Invitrogen (commercial screening service)

Pim-1 = target: T15, Pim-1 (Homo sapiens, UniProt P11309); assay: Kinase panel screen; assay type: biochemical; conditions: Compound I and ATP 10 μM
T15 construct: purchased Upstate USA or Invitrogen (contract screening service)

Rsk1 = target: T16, Rsk1 (Rattus norvegicus, UniProt Q63531); assay: Kinase panel screen; assay type: biochemical; conditions: Compound I and ATP 10 μM
T16 construct: purchased Upstate USA or Invitrogen (commercial screening service)

Lyn = target: T17, Lyn (Mus musculus, UniProt P25911); assay: Kinase panel screen; assay type: biochemical; conditions: Compound I and ATP 10 μM
T17 construct: purchased Upstate USA or Invitrogen (commercial screening service)

EC = EC proliferation; assay type: cell-based; conditions: inhibitors at 10 μM; 24, 48, 72 h
Description: Inhibition of cell proliferation and signaling. (a) EC were cultured in the presence of vehicle (DMSO) or PI3K inhibitors (all at 10 μM); cell proliferation was assessed either 24 (open bar), 48 (grey bar), or 72 h (black bar) later.
Applicants therefore compared the compounds profiled in Table 1 for their effects on cell proliferation.

Plk3 = target: T18, Plk3 (Homo sapiens, UniProt Q9H4B4); assay: Kinase panel screen; assay type: biochemical; conditions: Compound I and ATP 10 μM
T18 construct: purchased Upstate USA or Invitrogen (contract screening service)

Axl = target: T19, Axl (Homo sapiens, UniProt P30530); assay: Kinase panel screen; assay type: biochemical; conditions: Compound I and ATP 10 μM
T19 construct: purchased Upstate USA or Invitrogen (contract screening service)

TBK1 = target: T20, TBK1 (Homo sapiens, UniProt Q9UHD2); assay: Kinase panel screen; assay type: biochemical; conditions: Compound I and ATP 10 μM
T20 construct: purchased Upstate USA or Invitrogen (contract screening service)

ROCK-I = target: T21, ROCK-I (Homo sapiens, UniProt Q13464); assay: Kinase panel screen; assay type: biochemical; conditions: Compound I and ATP 10 μM
T21 construct: purchased Upstate USA or Invitrogen (commercial screening service)
T21 sequence (Q13464 whole entry): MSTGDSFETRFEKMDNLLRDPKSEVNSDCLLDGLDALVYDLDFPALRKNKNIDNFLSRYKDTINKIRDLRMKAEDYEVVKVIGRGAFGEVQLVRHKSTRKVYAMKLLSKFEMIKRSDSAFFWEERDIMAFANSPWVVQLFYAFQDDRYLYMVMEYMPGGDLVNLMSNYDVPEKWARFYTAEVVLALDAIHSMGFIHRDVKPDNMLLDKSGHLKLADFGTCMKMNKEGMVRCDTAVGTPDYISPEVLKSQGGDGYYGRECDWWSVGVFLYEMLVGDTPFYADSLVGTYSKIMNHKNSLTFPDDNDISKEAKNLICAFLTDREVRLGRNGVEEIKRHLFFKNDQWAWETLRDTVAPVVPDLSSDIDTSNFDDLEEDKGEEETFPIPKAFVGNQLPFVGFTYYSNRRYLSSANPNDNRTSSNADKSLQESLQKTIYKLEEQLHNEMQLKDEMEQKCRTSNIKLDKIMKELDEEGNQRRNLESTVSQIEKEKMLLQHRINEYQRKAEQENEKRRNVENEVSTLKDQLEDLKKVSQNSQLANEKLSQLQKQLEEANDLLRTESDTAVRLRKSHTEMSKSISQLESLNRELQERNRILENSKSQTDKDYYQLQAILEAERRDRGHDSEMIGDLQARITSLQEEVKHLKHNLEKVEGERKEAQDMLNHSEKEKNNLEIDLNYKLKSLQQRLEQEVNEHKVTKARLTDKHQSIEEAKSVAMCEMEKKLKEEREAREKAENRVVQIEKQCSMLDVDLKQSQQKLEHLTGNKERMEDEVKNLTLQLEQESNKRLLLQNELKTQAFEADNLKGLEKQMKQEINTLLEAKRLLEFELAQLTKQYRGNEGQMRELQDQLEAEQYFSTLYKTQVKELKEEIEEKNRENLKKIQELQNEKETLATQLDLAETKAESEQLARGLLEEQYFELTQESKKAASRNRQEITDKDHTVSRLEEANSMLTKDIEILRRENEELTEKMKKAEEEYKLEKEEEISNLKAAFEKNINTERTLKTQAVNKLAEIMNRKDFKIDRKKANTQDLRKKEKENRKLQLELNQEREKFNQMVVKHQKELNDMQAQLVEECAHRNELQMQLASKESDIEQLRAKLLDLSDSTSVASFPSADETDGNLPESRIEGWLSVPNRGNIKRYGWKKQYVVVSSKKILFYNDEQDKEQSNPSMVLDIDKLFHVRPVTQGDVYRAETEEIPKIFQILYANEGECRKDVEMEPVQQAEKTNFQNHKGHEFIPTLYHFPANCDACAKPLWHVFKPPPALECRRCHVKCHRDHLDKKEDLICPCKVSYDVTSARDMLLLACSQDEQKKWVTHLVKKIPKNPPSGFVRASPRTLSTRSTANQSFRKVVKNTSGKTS

NEK6 = target: T22, NEK6 (Homo sapiens, UniProt Q9HC98); assay: Kinase panel screen; assay type: biochemical; conditions: Compound I and ATP 10 μM
T22 construct: purchased Upstate USA or Invitrogen (commercial screening service)

Fgr = target: T23, Fgr (Homo sapiens, UniProt P09769); assay: Kinase panel screen; assay type: biochemical; conditions: Compound I and ATP 10 μM
T23 construct: purchased Upstate USA or Invitrogen (contract screening service)
T23 sequence (P09769 whole entry): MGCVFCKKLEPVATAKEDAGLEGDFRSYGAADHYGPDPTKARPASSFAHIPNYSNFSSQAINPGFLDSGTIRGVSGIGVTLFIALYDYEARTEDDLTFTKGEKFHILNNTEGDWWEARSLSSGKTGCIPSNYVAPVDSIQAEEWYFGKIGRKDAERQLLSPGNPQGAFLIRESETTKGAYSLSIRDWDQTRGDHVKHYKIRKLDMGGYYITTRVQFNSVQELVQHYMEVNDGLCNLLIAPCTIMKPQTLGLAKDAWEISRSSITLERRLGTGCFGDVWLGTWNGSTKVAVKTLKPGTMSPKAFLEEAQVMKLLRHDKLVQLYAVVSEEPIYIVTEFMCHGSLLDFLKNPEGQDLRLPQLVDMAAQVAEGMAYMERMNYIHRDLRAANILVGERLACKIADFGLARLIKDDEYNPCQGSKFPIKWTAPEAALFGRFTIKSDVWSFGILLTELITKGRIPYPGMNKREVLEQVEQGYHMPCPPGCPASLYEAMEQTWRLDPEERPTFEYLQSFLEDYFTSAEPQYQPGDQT

CHK1 = CHK1 (Homo sapiens, UniProt O14757); assay: Kinase panel screen; assay type: biochemical; conditions: Compound I and ATP 10 μM
Lck = target: T24, Lck (Homo sapiens, UniProt P06239); assay: Kinase panel screen; assay type: biochemical; conditions: Compound I and ATP 10 μM
T24 construct: purchased Upstate USA or Invitrogen (contract screening service)

histamine-induced edema = assay: Miles assay, histamine as agonist; assay type: in vivo, Sprague-Dawley rats; conditions: rats, Compound I pretreatment (1 mg/kg in FIG. 4)
Description: Sprague-Dawley rats were first injected IV with vehicle alone or test agent, followed by IV injection of Evans blue dye, followed by intradermal injections of saline and VEGF (200 ng/injection site) along both shaved flanks. […] The ability of test agents to influence edema induced by agonists other than VEGF was also tested. Compounds cited in this application inhibited edema formation induced using histamine as an agonist, for example, as shown below. The ability of test agent to influence vascular edema was tested as above, except that the ability to block edema was tested using either VEGF or histamine as the agonist (200 ng and 10 μg/injection site, respectively).

Hck = target: T25, Hck (Homo sapiens, UniProt P08631); assay: Kinase panel screen; assay type: biochemical; conditions: Compound I and ATP 10 μM
T25 construct: purchased Upstate USA or Invitrogen (commercial screening service)

PKD2 = target: T26, PKD2 (Homo sapiens, UniProt Q9BZL6); assay: Kinase panel screen; assay type: biochemical; conditions: Compound I and ATP 10 μM
T26 construct: purchased Upstate USA or Invitrogen (contract screening service)
T26 sequence (Q9BZL6 whole entry): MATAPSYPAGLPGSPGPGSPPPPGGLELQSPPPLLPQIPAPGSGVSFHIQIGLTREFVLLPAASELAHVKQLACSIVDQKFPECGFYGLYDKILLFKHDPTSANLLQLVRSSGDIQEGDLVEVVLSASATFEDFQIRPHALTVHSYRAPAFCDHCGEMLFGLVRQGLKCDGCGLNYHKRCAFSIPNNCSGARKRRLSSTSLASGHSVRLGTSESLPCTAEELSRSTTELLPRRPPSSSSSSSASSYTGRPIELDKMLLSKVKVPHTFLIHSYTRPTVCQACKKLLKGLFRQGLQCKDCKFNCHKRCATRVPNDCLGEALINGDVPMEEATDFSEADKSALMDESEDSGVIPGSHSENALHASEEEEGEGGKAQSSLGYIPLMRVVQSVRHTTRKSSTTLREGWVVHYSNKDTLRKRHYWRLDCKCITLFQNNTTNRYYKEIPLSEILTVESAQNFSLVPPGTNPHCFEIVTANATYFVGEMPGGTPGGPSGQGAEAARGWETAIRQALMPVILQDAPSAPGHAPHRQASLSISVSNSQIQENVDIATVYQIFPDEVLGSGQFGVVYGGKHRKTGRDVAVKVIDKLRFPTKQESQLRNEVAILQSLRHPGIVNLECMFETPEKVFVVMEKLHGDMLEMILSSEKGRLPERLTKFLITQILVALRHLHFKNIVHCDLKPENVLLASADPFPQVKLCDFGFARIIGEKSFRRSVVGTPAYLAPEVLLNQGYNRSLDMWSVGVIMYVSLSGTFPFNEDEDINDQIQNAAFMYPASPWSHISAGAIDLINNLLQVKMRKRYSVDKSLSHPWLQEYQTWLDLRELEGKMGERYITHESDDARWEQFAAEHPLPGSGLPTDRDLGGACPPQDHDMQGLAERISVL

cRaf = target: T27, cRaf (Homo sapiens, UniProt P04049); assay: Kinase panel screen; assay type: biochemical; conditions: Compound I at 1 μM and ATP at the apparent Km
T27 construct: purchased Upstate USA or Invitrogen (commercial screening service)

EGFR = EGFR (Homo sapiens, UniProt P00533); assay: Kinase panel screen; assay type: biochemical; conditions: Compound I and ATP 10 μM
PAK2 = target: T28, PAK2 (Homo sapiens, UniProt Q13177); assay: Kinase panel screen; assay type: biochemical; conditions: Compound I and ATP 10 μM
T28 construct: purchased Upstate USA or Invitrogen (commercial screening service)

Fer = target: T29, Fer (Homo sapiens, UniProt P16591); assay: Kinase panel screen; assay type: biochemical; conditions: Compound I and ATP 10 μM
T29 construct: purchased Upstate USA or Invitrogen (contract screening service)

CDK2 = target: T30, CDK2 (Homo sapiens, UniProt P24941); assay: Kinase panel screen; assay type: biochemical; conditions: Compound I and ATP 10 μM
T30 construct: purchased Upstate USA or Invitrogen (commercial screening service)

NEK2 = target: T31, NEK2 (Homo sapiens, UniProt P51955); assay: Kinase panel screen; assay type: biochemical; conditions: Compound I and ATP 10 μM
T31 construct: purchased Upstate USA or Invitrogen (commercial screening service)
T31 sequence (P51955 whole entry): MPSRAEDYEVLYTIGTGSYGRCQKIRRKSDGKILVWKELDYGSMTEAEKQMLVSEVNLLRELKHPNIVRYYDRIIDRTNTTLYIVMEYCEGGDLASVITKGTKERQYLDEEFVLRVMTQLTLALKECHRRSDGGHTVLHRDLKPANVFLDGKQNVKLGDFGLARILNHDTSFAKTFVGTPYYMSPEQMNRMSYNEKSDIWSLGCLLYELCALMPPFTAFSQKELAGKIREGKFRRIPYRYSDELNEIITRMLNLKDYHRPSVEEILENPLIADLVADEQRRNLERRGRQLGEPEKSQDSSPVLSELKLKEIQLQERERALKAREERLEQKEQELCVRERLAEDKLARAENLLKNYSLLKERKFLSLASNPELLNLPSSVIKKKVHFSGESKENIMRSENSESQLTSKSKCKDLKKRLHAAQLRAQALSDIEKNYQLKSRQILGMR

ALK = target: T32, ALK (Homo sapiens, UniProt Q9UM73); assay: Kinase panel screen; assay type: biochemical; conditions: Compound I and ATP 10 μM
T32 construct: purchased Upstate USA or Invitrogen (contract screening service)

AMPK = assay: Kinase panel screen; assay type: biochemical, rat; conditions: Compound I and ATP 10 μM

## Nc1nc(N)c2nc(-c3cccc(O)c3)c(-c3cccc(O)c3)nc2n1 [Compound I, 6,7-bis-(3-hydroxyphenyl)-pteridine-2,4-diamine]
IR
  Percent Control, IR: 81%
Akt1
  Percent Control, Akt1*: 96%
Akt3
  Percent Control, Akt3*: 98%
DDR2
  Percent Control, DDR2: 88%
FGFR2
  Percent Control, FGFR2: 73%
SGK
  Percent Control, SGK: 95%
Ret
  Percent Control, Ret: 57%
Met
  Percent Control, Met: 41%
Blk
  Percent Control, Blk (m): 57%
Flt1
  Percent Control, Flt1: 62%
FGFR1
  Percent Control, FGFR1: 75%
ROCK-II
  Percent Control, ROCK-II: 81%
MAPKAP-K2
  Percent Control, MAPKAP-K2: 107%
SAPK2b
  Percent Control, SAPK2b: 87%
Pim-1
  Percent Control, Pim-1: 70%
Rsk1
  Percent Control, Rsk1 (r): 86%
Lyn
  Percent Control, Lyn (m): 41%
EC
  effect on EC proliferation: no effects
Plk3
  Percent Control, Plk3: 97%
Axl
  Percent Control, Axl: 76%
TBK1
  Percent Control, TBK1: 89%
ROCK-I
  Percent Control, ROCK-I: 93%
NEK6
  Percent Control, NEK6: 97%
Fgr
  Percent Control, Fgr: 72%
CHK1
  Percent Control, CHK1: 100%
Lck
  Percent Control, Lck: 52%
histamine-induced edema
  histamine-induced permeability / edema formation: blocked; also recorded: reduced edema formation
Hck
  Percent Control, Hck: 67%
PKD2
  Percent Control, PKD2: 37%
cRaf
  Percent Control, cRaf*: 98%
EGFR
  Percent Control, EGFR: 99%
PAK2
  Percent Control, PAK2: 87%
Fer
  Percent Control, Fer: 80%
CDK2
  Percent Control, CDK2 (first entry): 67%
NEK2
  Percent Control, NEK2: 98%
ALK
  Percent Control, ALK: 48%
AMPK
  Percent Control, AMPK (r): 88%

Reference: patent US7691858B2, “Kinase inhibitors and methods of use thereof” (TargeGen, Inc., priority 2006, dated 2010)
